The values below come from paper PMC10838382 (Cancer Drug Resistance, 2024).

The test system of one assay is 22Rv1. As to the kind of experiment: 3D clonogenic assay (soft agar). The note with it: for pIC50: Homo sapiens, 22Rv1, read-out: Cabazitaxel IC50, 22Rv1, 3D clonogenic assay.
The test system of assay [1] is DU-145. The experiment in a line: 3D clonogenic assay (soft agar). The settings on record: for pIC50: Homo sapiens, DU-145, read-out: Cabazitaxel IC50, DU-145, 3D clonogenic assay.
A further assay deals with 22Rv1DOC8. As to the kind of experiment: 3D clonogenic assay (soft agar). In kind it is cell-based, human. The settings on record: 3D clonogenic assay; for pIC50: 22Rv1DOC8, read-out: Cabazitaxel IC50; for Relative resistance: 22Rv1DOC8 vs 22Rv1.
The test system of the next assay is DU-145DOC10. As to the kind of experiment: 3D clonogenic assay (soft agar). It counts as cell-based, human. The settings on record: for Relative resistance: DU-145DOC10 vs DU-145; for pIC50: Homo sapiens, DU-145DOC10.
For another assay, the system named is PRXF DU-145. The experiment in a line: 2D proliferation assay (CellTiter-Blue). The note with it: 2D proliferation assay. In kind it is cell-based, human.
In a further assay the test system is MAXFTN CAL-51. The experiment in a line: cells. The note with it: Homo sapiens, CAL-51, read-out: Relative ritonavir IC50.
A further assay deals with MAXFTN MCF 10A. The experiment in a line: cells. The settings on record: Homo sapiens, read-out: Relative ritonavir IC50.
The subject of another assay is OVXF NCI-ADR-RES. The experiment in a line: cells. The note with it: Homo sapiens, read-out: Relative ritonavir IC50.
The test system of a further assay is DU-145 cells. The note with it: NCI60 panel, read-out: IC50 value, anti-proliferative effect; cited from earlier work.
For a further assay, the system named is PRXF 22Rv1. The experiment in a line: 2D proliferation assay (CellTiter-Blue). The note with it: Homo sapiens, read-out: Relative ritonavir IC50; PRXF 22Rv1; 2D proliferation assay. It counts as cell-based.
Another assay deals with GXA 3011. The experiment in a line: cells. The note with it: read-out: Relative ritonavir IC50.
In the next assay the test system is LXFA EKVX. As to the kind of experiment: cells. The note with it: Homo sapiens, read-out: Relative ritonavir IC50.
In the next assay the test system is PC-3. The experiment in a line: 2D proliferation assay (CellTiter-Blue). In kind it is cell-based. The settings on record: Homo sapiens, read-out: Relative ritonavir IC50, PC-3.
The subject of a further assay is 15 tumor cell lines. As to the kind of experiment: 2D proliferation assay (CellTiter-Blue), panel of 15 tumor cell lines. The settings on record: at the concentration ranges tested; 2D proliferation assay.
Another assay relates to OVXF 899. As to the kind of experiment: cells. The note with it: read-out: Relative ritonavir IC50.
In the next assay the test system is MAXFTN MX1. As to the kind of experiment: 2D proliferation assay (CellTiter-Blue). The note with it: read-out: Relative ritonavir IC50.
The test system of another assay is PC-3M. As to the kind of experiment: 2D proliferation assay (CellTiter-Blue). The note with it: Homo sapiens, read-out: Relative ritonavir IC50.
Assay [2] deals with DU-145. The note with it: read-out: IC50, single agent ritonavir; DU-145 proliferation assay; cited from earlier work.
Another assay relates to GXA NUGC-4. As to the kind of experiment: cells. The note with it: Homo sapiens, NUGC-4, read-out: Relative ritonavir IC50.
A further assay concerns MAXFLB MCF7. As to the kind of experiment: cells. The note with it: Homo sapiens, MCF7, read-out: Relative ritonavir IC50.
In a further assay the test system is OVXF EFO-27. The experiment in a line: 2D proliferation assay (CellTiter-Blue). The note with it: Homo sapiens, EFO-27, read-out: Relative ritonavir IC50.
The next assay has as its system LXFA 737. The experiment in a line: 2D proliferation assay (CellTiter-Blue). The settings on record: read-out: Relative ritonavir IC50.

Molecules are shown by their SMILES. pIC50: −log10 of the molar value. Read-outs that look alike come from different tables or passages of the source.

As for `COc1cc2c(cc1OC)CN(CCc1ccc(NC(=O)c3cccc4c(=O)c5cccc(OC)c5[nH]c34)cc1)CC2` [Elacridar], the “effect of elacridar alone on parental cells” value in the assay on 22Rv1 (22Rv1 parental, data not shown) is reported as “no effect”; in the assay on DU-145 [1] (DU-145 parental, data not shown), “no effect”.

`CO[C@H]1C(=O)[C@]2(C)[C@@H](OC)C[C@H]3OC[C@@]3(OC(C)=O)[C@H]2[C@H](OC(=O)c2ccccc2)[C@]2(O)C[C@H](OC(=O)[C@H](O)[C@@H](NC(=O)OC(C)(C)C)c3ccccc3)C(C)=C1C2(C)C` [Cabazitaxel]: the pIC50 with 22Rv1DOC8 (+ ritonavir 32 µM) was 9.15; with 22Rv1DOC8 (Homo sapiens, + ritonavir 10 µM) it was 8.28; in the assay with 22Rv1DOC8 (Homo sapiens, + ritonavir 32 µM), 9.22; in the assay on 22Rv1DOC8 (Homo sapiens, without ritonavir), 8.02; in the assay on 22Rv1 (+ ritonavir 10 µM), 9.15; in the assay with 22Rv1 (+ ritonavir 32 µM), 9.15. Further, the pIC50 was 9.15 in the assay on 22Rv1 (without ritonavir); 9.52 in the assay on DU-145 [1] (+ ritonavir 10 µM); 9.22 in the assay with DU-145 [1] (without ritonavir); 9.22 with DU-145DOC10 (3D clonogenic assay, + ritonavir 10 µM, read-out: Cabazitaxel IC50); 8.82 in the assay on DU-145DOC10 (3D clonogenic assay, without ritonavir, read-out: Cabazitaxel IC50); 8.84 in the assay on DU-145DOC10 (cabazitaxel alone, Figure 7A, read-out: IC 50). In addition, the Relative resistance with 22Rv1DOC8 (cabazitaxel + ritonavir 10 µM) was determined as 7.4; in the assay with 22Rv1DOC8 (cabazitaxel + ritonavir 32 µM), 1.0; in the assay on 22Rv1DOC8 (cabazitaxel without ritonavir) it was 13.6; in the assay on DU-145DOC10 (cabazitaxel + ritonavir 10 µM, 3D clonogenic assay) it was 1.0; in the assay with DU-145DOC10 (cabazitaxel without ritonavir, 3D clonogenic assay), 2.5.

Consider `CC(C)c1nc(CN(C)C(=O)N[C@H](C(=O)N[C@@H](Cc2ccccc2)C[C@H](O)[C@H](Cc2ccccc2)NC(=O)OCc2cncs2)C(C)C)cs1` [Ritonavir], for which the pIC50 with PRXF DU-145 (Homo sapiens, DU-145, read-out: Relative ritonavir IC50, PRXF DU-145) is 4.79; in the assay with PRXF DU-145 (read-out: Relative ritonavir IC50, PRXF DU-145), 4.79; with MAXFTN CAL-51 it was < 4.52; with MAXFTN MCF 10A, < 4.52; in the assay on OVXF NCI-ADR-RES, < 4.52; in the assay on DU-145 cells, < 4.70. For the same compound, the pIC50 was 4.53 with PRXF 22Rv1; < 4.52 with GXA 3011; < 4.52 with LXFA EKVX; 4.66 in the assay with PC-3; 4.59 in the assay with OVXF 899; < 4.65 with MAXFTN MX1. Besides, the pIC50 with PC-3M was 4.63; in the assay on DU-145 [2], 5.52; with GXA NUGC-4, 5.90; with MAXFLB MCF7, < 4.52; in the assay with OVXF EFO-27, < 4.52; in the assay on LXFA 737, < 4.52. In addition, the single agent activity entry with 15 tumor cell lines is reported as “no considerable or only low activity”.
